# Measured values reported in patent US20240208950A1, “COMPOSITIONS AND METHODS FOR TREATMENT OF CERVICAL AND OVARIAN CANCER” (SOUTH DAKOTA BOARD OF REGENTS, priority 2021, published 2024).
# Key:
# [1] = tested on: ovarian cancer cell line A2780; assay: MTT cell viable assay (cytotoxicity and anti-proliferation); format: cell-based; conditions: Homo sapiens
# Procedure: A biological assay was performed to study the potency of ORM-analogs by observing their pharmaceutical effects on living tissue (in vitro) and the effects of these analogs of unknown potency were compared to the effects of the standard (ormeloxifene). An MTT cell viable assay was first conducted to measure the cytotoxicity and anti-proliferation activity of synthesized analogs (Table 2 and FIG. 2).
# CaSki cells = assay: Cell migration (agarose bead, scratch wound, Boyden chamber), CaSki; format: cell-based, human; conditions: 0 and 48 hours
# Procedure: FIGS. 7B and 7D show the effect of ORM-Br on motility potential of CaSki cells (FIG. 7B) and SiHa cells (FIG. 7D) as predicted by agarose bead assay. The images shown in FIGS. 7A-7D represent the migratory cells (MC) in control and ORM-Br treated groups at 0 and 48 hours. In FIGS. 7B and 7D, AB means agarose beads. In FIGS. 7A-7D the images magnification were at 4.
# Cell motility was performed by in vitro scratch wound assay. Briefly, cells were seeded in a 12-wells plate and after 80-90% confluency a standardized wound was made using a 200 μL micropipette tip. Cells were then treated with Br-ORM (10 μM) and photographed by phase contrast microscopy. […]
# FIG. 14. […] Effect of Br-ORM on cell migration of cervical cancer cells as determined by agarose bead (FIG. 14A), scratch wound healing (FIG. 14B), and Boyden chamber assay (FIG. 14C). […] Closure of wound was determined and photographed using phase contrast microscopy. […] Bar graph represent the quantification of migrated CaSki cells of control and Br-ORM treated groups (FIG. 14C(ii)). […] Effect of Br-ORM treatment on invasion of CaSki cells as determined by a commercially available kit (BD Biosciences) as described in materials and methods. In brief, 24 hours post-treatment of Br-ORM, invaded cells were fixed, stained and counted. […] Bar graph represent the quantification of invaded CaSki cells of control and Br-ORM treated groups (FIG. 14D(ii)). […]
# [2] = tested on: EMT markers and MMPs in CaSki cells; assay: Western blot for EMT markers and MMPs, CaSki; format: cell-based, human; conditions: 24 hours
# Procedure: In a further example, cell lysates and western blot analysis was conducted for EMT markers and MMPs. […] In this example, about 70% of confluent SiHa and CaSki were treated with ORM-Br ([…]) for 24 hours. Cell lysates were prepared, and western blot analysis were conducted for EMT markers and MMPs analysis. The effect of ORM-Br on protein levels of cell-cycle regulatory proteins (cyclin E1 and p27) in both CaSki and SiHa cell lines are shown.
# The effect of Br-ORM on protein expression in cervical cancer cells were determined by Western blot analysis by using specific antibodies.
# (§1) Epithelial mesenchymal transition (EMT) is the basic characteristic of cancer cells in which epithelial cells undergo morphologic and molecular changes that transform the cells to mesenchymal, highly metastatic (invasive and motile), and drug-resistant phenotypes. Thus, targeting EMT may reduce the invasive phenotypes of a cancer cell and have significant advantage to overcome drug resistance. It has been reported that β-catenin is involved in invasion and metastasis via inducing EMT in various tumor cells. The effect of Br-ORM treatment on various EMT markers in cervical cancer cells was evaluated. […] The effect of Br-ORM on expression of EMT markers in cervical cancer cells compared to untreated group by use of qPCR analysis was determined. […] Expression of E-cadherin in cervical cancer cells treated with Br-ORM (10 μM) for 18 hours was also determined by immunofluorescence and confocal microscopy. Images were captured under 60× magnification and representative images are presented (FIG. 14G).
# FIG. 14. Br-ORM decreases migration, invasion and attenuates EMT in cervical cancer cells. Effect of Br-ORM on cell migration of cervical cancer cells as determined by agarose bead (FIG. 14A), scratch wound healing (FIG. 14B), and Boyden chamber assay (FIG. 14C). AB denotes agarose bead while MC denotes migratory cells. Arrows indicate the distance of cervical cancer (CaSki and SiHa) cells migration in control and Br-ORM treated groups (FIG. 14A(i)-(ii)). […] Closure of wound was determined and photographed using phase contrast microscopy. […] Bar graph represent the quantification of migrated CaSki cells of control and Br-ORM treated groups (FIG. 14C(ii)). […] Effect of Br-ORM treatment on invasion of CaSki cells as determined by a commercially available kit (BD Biosciences) as described in materials and methods. In brief, 24 hours post-treatment of Br-ORM, invaded cells were fixed, stained and counted. […] Bar graph represent the quantification of invaded CaSki cells of control and Br-ORM treated groups (FIG. 14D(ii)). […] Effect of Br-ORM on E-cadherin expression in cervical cancer cells as determined by confocal microscopy in control and Br-ORM treated cells after 18 hours.
# [3] = tested on: E-cadherin and N-cadherin mRNA in cervical cancer cells; assay: qPCR of E-cadherin and N-cadherin; format: cell-based, human; conditions: both cervical cancer cells, 18 hours
# Procedure: RNA from cervical cancer cells was isolated using Qiagen kit and quantified using NanoDrop instrument 2000 (Thermo Scientific, Waltham, MA, USA). To analyze the expression of miR-200a in control and Br-ORM treated cells, 100 ng total RNA was reverse transcribed into cDNA using specific primers designed for miRNA analysis (Applied Biosystems, Foster City, CA, USA). The expression of this miRNAs was determined by qRT-PCR using the Taqman PCR master mixture and specific primers designed for detection of mature miRNAs (Applied Biosystems). The expression of miRNA was normalized with the expression of endogenous control, RNU6B.
# as §1, with “Thus, targeting EMT may reduce the invasive phenotypes of a cancer cell and have significant advantage to overcome drug resistance. It has been reported that β-catenin is involved in invasion and metastasis via inducing EMT in various tumor cells.” left out, “Images were captured under 60× magnification and representative images are presented (FIG. 14G).” left out
# FIG. 14. […] Closure of wound was determined and photographed using phase contrast microscopy. […]
compound,measurement,setting,value
COc1ccc2c(c1)OC(C)(C)C(c1ccc(Br)cc1)C2c1ccc(OCCN2CCCC2)cc1 (stereo not drawn) [ORM-Br],IC50,[1],11.2 µM
same,cell migration / motility,CaSki cells,inhibits the migration
same,cell migration / motility,CaSki cells; listed as Br-ORM,dose dependent inhibition of migration abilities
same,"EMT associated markers (N-cadherin, vimentin and snail) expression",[2],inhibits the EMT associated markers
same,expression of E-cadherin,[2],induced the expression of E-cadherin
same,expression of MMP2 and MMP9,[2],inhibited the expression of MMP2 and MMP9
same,"EMT associated markers (N-cadherin, vimentin and snail) expression",[2]; listed as Br-ORM,marked inhibition
same,mRNA level of E-cadherin,[3],significantly elevated
same,mRNA level of N-cadherin,[3],significantly reduced
